Reference: PubChem BioAssay AID252 (DTP/NCI, 2004)
Several values for one entry are separate records, joined by “and”; a condition that tells them apart may be missing. Equal values may be shown once. Toxic doses and inconclusive results are not listed.

Tested on: BDF1 mice, intracerebral L1210 leukemia, survival T/C
Assay: NCI In Vivo Anticancer Drug Screen. Data for tumor model L1210 Leukemia (intracerebral) in B6D2F1 (BDF1) mice
Details: higher = longer survival
In short: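 Antitumour effect is judged in mice with transplanted tumour by comparing survival of treated (T) against vehicle-dosed (C) groups as T/C.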

[1] = endpoint: mean survival time, dose: 0.25 mg/kg/injection, schedule: Q01DX009 (ip), vehicle: saline
[2] = endpoint: mean survival time, dose: 0.5 mg/kg/injection, schedule: Q01DX009 (ip), vehicle: saline
[3] = endpoint: mean survival time, dose: 2.0 mg/kg/injection, schedule: Q01DX009 (ip), vehicle: saline

Question: How did the T/C (endpoint: mean survival time, dose: 10.0 mg/kg/injection, schedule: Q01DX001 (ip), vehicle: other) turn out when O=NN(CCF)C(=O)NC12CC3CC(CC(C3)C1)C2 was run?
Answer: 103 % of control

Question: What about the T/C (endpoint: mean survival time, dose: 20.0 mg/kg/injection, schedule: Q01DX001 (ip), vehicle: other) of the same compound?
Answer: 101 % of control

Question: What about the T/C (endpoint: mean survival time, dose: 40.0 mg/kg/injection, schedule: Q01DX001 (ip), vehicle: other) of the same compound?
Answer: 110 % of control

Question: What about the T/C (endpoint: mean survival time, dose: 60.0 mg/kg/injection, schedule: Q01DX001 (ip), vehicle: other) of the same compound?
Answer: 120 % of control

Question: Which results are given for CCOC(=O)C1(NC(=O)N(CCCl)N=O)CCCCC1?
Answer: T/C (endpoint: mean survival time, dose: 62.0 mg/kg/injection, schedule: Q01DX001 (ip), vehicle: other): 110 % of control; T/C (endpoint: mean survival time, dose: 250.0 mg/kg/injection, schedule: Q01DX001 (ip), vehicle: other): 192 % of control and 200 % of control; T/C (endpoint: mean survival time, dose: 500.0 mg/kg/injection, schedule: Q01DX001 (ip), vehicle: other): 190 % of control and 196 % of control; T/C (endpoint: mean survival time, dose: 750.0 mg/kg/injection, schedule: Q01DX001 (ip), vehicle: other): 215 % of control; T/C (endpoint: mean survival time, dose: 1000.0 mg/kg/injection, schedule: Q01DX001 (ip), vehicle: other): 156 % of control

Question: How did the T/C (endpoint: mean survival time, dose: 0.12 mg/kg/injection, schedule: Q01DX009 (ip), vehicle: saline) turn out when COC1=C(N2CC2)C(=O)C(OC)=C(N2CC2)C1=O was run?
Answer: 101 % of control

Question: And the T/C [1]?
Answer: 95 % of control

Question: And the T/C [2]?
Answer: 104 % of control and 106 % of control and 98 % of control

Question: And the T/C (endpoint: mean survival time, dose: 1.0 mg/kg/injection, schedule: Q01DX009 (ip), vehicle: saline)?
Answer: 105 % of control and 111 % of control and 121 % of control

Question: And the T/C [3]?
Answer: 114 % of control and 117 % of control

Question: And the T/C (endpoint: mean survival time, dose: 4.0 mg/kg/injection, schedule: Q01DX009 (ip), vehicle: saline)?
Answer: 86 % of control

Question: How did the T/C (endpoint: mean survival time, dose: 10.0 mg/kg/injection, schedule: Q01DX001 (ip), vehicle: saline) turn out when S=P(N1CC1)(N1CC1)N1CC1 was run?
Answer: 154 % of control

Question: What about the T/C (endpoint: mean survival time, dose: 15.0 mg/kg/injection, schedule: Q01DX001 (ip), vehicle: saline) of the same compound?
Answer: 228 % of control

Question: How did the T/C (endpoint: mean survival time, dose: 1.5 mg/kg/injection, schedule: Q01DX009 (ip), vehicle: water) turn out when C[n+]1c2ccccc2c(Nc2ccc(NS(=O)(=O)CCCCN=C(N)N)cc2)c2ccc(N)cc21 was run?
Answer: 103 % of control

Question: What about the T/C (endpoint: mean survival time, dose: 3.0 mg/kg/injection, schedule: Q01DX009 (ip), vehicle: water) of the same compound?
Answer: 121 % of control

Question: And the T/C (endpoint: mean survival time, dose: 6.0 mg/kg/injection, schedule: Q01DX009 (ip), vehicle: water)?
Answer: 117 % of control

Question: What about the T/C (endpoint: mean survival time, dose: 12.0 mg/kg/injection, schedule: Q01DX009 (ip), vehicle: water) of the same compound?
Answer: 101 % of control

Question: Which results are given for CC(=O)NC1=C(N2CC2)C(=O)C(NC(C)=O)=C(N2CC2)C1=O?
Answer: T/C (endpoint: mean survival time, dose: 0.12 mg/kg/injection, schedule: Q01DX009 (ip), vehicle: saline with Tween-80): 105 % of control; T/C (endpoint: mean survival time, dose: 0.25 mg/kg/injection, schedule: Q01DX005 (ip), vehicle: saline with Tween-80): 97 % of control; T/C (endpoint: mean survival time, dose: 0.25 mg/kg/injection, schedule: Q01DX009 (ip), vehicle: saline with Tween-80): 105 % of control; T/C [1]: 110 % of control and 117 % of control; T/C (endpoint: mean survival time, dose: 0.5 mg/kg/injection, schedule: Q01DX005 (ip), vehicle: saline with Tween-80): 105 % of control; T/C (endpoint: mean survival time, dose: 0.5 mg/kg/injection, schedule: Q01DX009 (ip), vehicle: saline with Tween-80): 108 % of control; T/C (endpoint: mean survival time, dose: 0.5 mg/kg/injection, schedule: Q01DX Z (ip), vehicle: carboxymethylcellulose (CMC)): 113 % of control; T/C (endpoint: mean survival time, dose: 1.0 mg/kg/injection, schedule: Q01DX005 (ip), vehicle: saline with Tween-80): 111 % of control; T/C (endpoint: mean survival time, dose: 2.0 mg/kg/injection, schedule: Q01DX005 (ip), vehicle: saline with Tween-80): 115 % of control; T/C [3]: 96 % of control and 98 % of control; T/C (endpoint: mean survival time, dose: 2.0 mg/kg/injection, schedule: Q01DX Z (ip), vehicle: carboxymethylcellulose (CMC)): 119 % of control

Question: How did the T/C (endpoint: mean survival time, dose: 135.0 mg/kg/injection, schedule: Q01DX009 (ip), vehicle: saline) turn out when Nc1nncs1 was run?
Answer: 101 % of control

Question: What about the T/C (endpoint: median survival time, dose: 64.0 mg/kg/injection, schedule: Q01DX005 (ip), vehicle: saline with Tween-80) of the same compound?
Answer: 120 % of control

Question: What about the T/C (endpoint: median survival time, dose: 512.0 mg/kg/injection, schedule: Q01DX005 (ip), vehicle: saline with Tween-80) of the same compound?
Answer: 100 % of control

Question: Which results are given for O=NN(CCCl)C(=O)Nc1cccc(Cl)c1?
Answer: T/C (endpoint: mean survival time, dose: 44.0 mg/kg/injection, schedule: Q01DX001 (ip), vehicle: carboxymethylcellulose (CMC)): 102 % of control; T/C (endpoint: mean survival time, dose: 67.0 mg/kg/injection, schedule: Q01DX001 (ip), vehicle: carboxymethylcellulose (CMC)): 100 % of control; T/C (endpoint: mean survival time, dose: 77.0 mg/kg/injection, schedule: Q01DX001 (ip), vehicle: carboxymethylcellulose (CMC)): 107 % of control; T/C (endpoint: mean survival time, dose: 100.0 mg/kg/injection, schedule: Q01DX001 (ip), vehicle: carboxymethylcellulose (CMC)): 98 % of control; T/C (endpoint: mean survival time, dose: 117.0 mg/kg/injection, schedule: Q01DX001 (ip), vehicle: carboxymethylcellulose (CMC)): 103 % of control; T/C (endpoint: mean survival time, dose: 175.0 mg/kg/injection, schedule: Q01DX001 (ip), vehicle: carboxymethylcellulose (CMC)): 108 % of control; T/C (endpoint: mean survival time, dose: 252.0 mg/kg/injection, schedule: Q01DX001 (ip), vehicle: carboxymethylcellulose (CMC)): 103 % of control

Question: How did the T/C (endpoint: mean survival time, dose: 60.0 mg/kg/injection, schedule: Q01DX001 (ip), vehicle: carboxymethylcellulose (CMC)) turn out when CN(N=O)C(=O)Nc1ccc(C(=O)O)cc1 was run?
Answer: 110 % of control

Question: And the T/C (endpoint: mean survival time, dose: 120.0 mg/kg/injection, schedule: Q01DX001 (ip), vehicle: carboxymethylcellulose (CMC))?
Answer: 114 % of control

Question: Which results are given for CCC(=O)NC1=C(N2CC2)C(=O)C(NC(=O)CC)=C(N2CC2)C1=O?
Answer: T/C [2]: 105 % of control; T/C [3]: 117 % of control
